Reference: patent US20240173333A1, “Treating Alagille Syndrome (ALGS)” (priority 2022, published 2024)
Values joined by “and” are separate entries in the source; they are usually repeats but may differ in a detail not shown here. Identical values can stand only once. Marks after values point to notes of the source that are not given here.

What was measured:
[1] = tested on: patients with Alagille syndrome (ALGS); assay: ASSERT: global impression of change (CGIC, CaGIC, PGIC) and exit survey; format: in vivo, human; conditions: week 24
Experimental: FIG. 27 is a table showing global impressions of change (GIC) over time. GIC items are assessed on a 7-point scale: 1=very much better; 2=much/moderately better; 3=a little better; 4=no change; 5=a little worse; 6=much/moderately worse; 7=very much worse. Changes based on the GIC were analyzed using a proportional odds model with treatment and baseline GIS scores as covariates considering three categories (better, no change, worse). Better includes “very much better,” “much better,” and “a little better,” and worse includes “a little worse,” “much worse,” and “very much worse.” CaGIC=Caregiver Global Impression of Change. CGIC=Clinician Global Impression of Change. PGIC=Patient Global Impression of Change. Global Impression of Change and Global Impression of Symptom Measures. Patients (≥8 years of age), caregivers, and clinicians completed global impression of change (GIC) measures (patient global impression of change (PGIC), caregiver global impression of change (CaGIC), and clinical global impression of change (CGIC)) and the global impression of symptoms (GIS) measures (patient global impression of symptoms (PGIS), caregiver global impression of symptoms (CaGIS), clinical global impression of symptoms (CGIS)) at randomization (Study Day 1; PGIS only), Week 4, 12, and 24/EOT. The GIC items assessed changes in itch (patient version), scratching (caregiver and clinician versions), and sleep (all versions) since starting the study drug. The GIS items assessed itch (patient version), scratching (caregiver and clinician versions), and sleep (all versions) in the past week. Caregivers and clinicians completed the GIC and GIS for all patients; those patients ≥8 years of age completed the patient version.

[2] = tested on: patients with Alagille syndrome (ALGS); assay: ASSERT: PedsQL total and domain scores; format: in vivo, human
Source text: […] Additional secondary efficacy endpoints were as follows: • Change from baseline in pruritus to Month 6 (Weeks 21 to 24) as measured by the Albireo PRO instrument. • Percentage of patients achieving a clinically meaningful decrease in pruritus (pruritis responders) as measured by the ObsRO/PRO instruments. • Change from baseline through Week 24 in patient reported and observer reported itching and scratching severity scores, respectively, for the morning assessment and for the evening assessment; sleep parameters as measured with the Albireo ObsRO/PRO instruments (e.g., tiredness and number of awakenings); and PedsQL subdomain scores. • Assessment of Global Symptom Relief to from baseline to Weeks 4, 12, and 24 as measured by patient, caregiver, and clinician Global Impression of Symptoms GIS (PGIS, CaGIS, CGIS) items. • Change from baseline to Week 24 in xanthomatosis as assessed by the Clinician Xanthoma Scale; serum bile acid levels; serum ALT concentration; and serum AST concentration; gamma-glutamyl transferase concentration; total bilirubin concentration. • Change from baseline in biochemical markers and measures of bile acid synthesis (autotaxin, p-C4, only in patients >10 kg); and total cholesterol concentration.
Scores range from 0 and 100, with higher scores indicating better functioning. *n=28 for LS mean change from baseline to week 24. ^†Analysis of change from baseline with odevixibat vs placebo based on ANCOVA model at each visit with baseline score as a covariate and treatment group and age category (<5 years, 5-7 years, 8-12 years, 13-18 years) as fixed effects. ANCOVA=analysis of covariance. LS=least squares. PedsQL=Paediatric Quality of Life Inventory.

[3] = tested on: patients with Alagille syndrome (ALGS); assay: Pooled ASSERT and ASSERT-EXT: TEAEs; format: in vivo, human
Experimental: In the completed 24-week ASSERT study, patients with ALGS with history of significant pruritus and elevated serum BAs were randomized 2:1 to once-daily odevixibat 120 μg/kg or placebo, respectively. Patients who completed ASSERT could enter ASSERT-EXT, an ongoing, 72-week open-label extension study in which all patients receive odevixibat 120 μg/kg/day. This pooled analysis included all odevixibat-treated patients from ASSERT and/or ASSERT-EXT and spans from patients' first dose of odevixibat to a data cut-off of Sep. 9, 2022. Assessments over up to 36 weeks of treatment included change in observer-reported scratching scores and sleep parameters, as well as levels of serum BAs, autotaxin (a proposed meditator of pruritus), and 7 alpha-hydroxy-4-cholesten-3-one (C4; a marker of bile acid synthesis). Safety evaluations included assessment of alanine aminotransferase (ALT), total bilirubin, and treatment-emergent adverse events (TEAEs).

[4] = tested on: patients with Alagille syndrome (ALGS); assay: ASSERT: global impression of change (CGIC, CaGIC, PGIC) and exit survey; format: in vivo, human; conditions: post hoc analysis; completion of study
[5] = tested on: patients with Alagille syndrome (ALGS); assay: ASSERT pruritus responders: TEAEs
Source text: (§1) Treatment with concomitant medications for pruritus was permitted provided the patient was on a stable dosage for ≥4 weeks prior to enrollment that was maintained throughout the study.
(§2) Pruritus responders were defined as patients having a ≥1-point decrease in ObsRO scratching score from baseline to weeks 21-24).

[6] = tested on: patients with Alagille syndrome (ALGS); assay: ASSERT pruritus responders: ObsRO scratching score
Source text: as §1, §2

## CCCCC1(CCCC)CN(c2ccccc2)c2cc(SC)c(OCC(=O)N[C@@H](C(=O)N[C@@H](CC)C(=O)O)c3ccc(O)cc3)cc2S(=O)(=O)N1 [odevixibat, 1,1-dioxo-3,3-dibutyl-5-phenyl-7-methylthio-8-(N-{(R)-α-[N-((S)-1-carboxypropyl)carbamoyl]-4-hydroxybenzyl}carbamoylmethoxy)-2,3,4,5-tetrahydro-1,2,5-benzothiadiazepine]
[1]
  CGIC for scratching, percentage of clinician responses (improved): 80%
  CGIC for sleep, percentage of clinician responses (improved): 74%
  CaGIC for scratching, percentage of caregiver responses (improved pruritus): 87% and 88%
  CaGIC for sleep, percentage of caregiver responses (improved sleep): 78%
[1]; patients ≥8 years
  PGIC for itching, percentage of patient responses (improved): 80%
  PGIC for sleep, percentage of patient responses (improved): 70%
[1]; proportional odds model
  odds of improvement in sleep, relative to placebo (CaGIC): nine times higher
  odds of improvement versus no change or worsening in scratching, relative to placebo (CaGIC): 15 times
[2]; baseline, n=30
  PedsQL Emotional Functioning, Mean (SD) at baseline: 55.8 (17.8)
  PedsQL Physical Functioning, Mean (SD) at baseline: 71.6 (21.4)
  PedsQL School Functioning, Mean (SD) at baseline: 63.3 (22.9)
  PedsQL Social Functioning, Mean (SD) at baseline: 78.5 (18.8)
[2]; baseline, n=30, score 0-100
  PedsQL Total Score, Mean (SD) at baseline: 67.8 (16.3)
[2]; n=28
  PedsQL Emotional Functioning, LS mean (SE) change from baseline to week 24: 21.0 (3.3)
  PedsQL Physical Functioning, LS mean (SE) change from baseline to week 24: 14.2 (2.9)
  PedsQL School Functioning, LS mean (SE) change from baseline to week 24: 13.3 (3.0)
  PedsQL Social Functioning, LS mean (SE) change from baseline to week 24: 5.1 (3.2)
[2]; n=28, score 0-100
  PedsQL Total Score, LS mean (SE) change from baseline to week 24: 13.5 (2.5)
[3]
  TEAEs that led to study discontinuation: No patient
[3]; 6 of 52
  patients reporting drug-related diarrhea: 12%
[3]; 15 of 52
  patients reporting drug-related TEAEs: 29%
[3]; 43 of 52
  patients reporting TEAEs: 83%
[3]; n=52
  Any TEAE: 43 (83) n (%)
  Drug-related TEAE: Abdominal pain: 2 (4) n (%)
  Drug-related TEAE: Abdominal pain upper: 2 (4) n (%)
  Drug-related TEAE: Diarrhea: 6 (12) n (%)
  Drug-related TEAE: Vomiting: 2 (4) n (%)
  Drug-related TEAEs: 15 (29) n (%)
  Drug-related serious TEAEs: 1 (2) n (%)
  Serious TEAEs: 6 (12) n (%)
  Severe TEAEs: 7 (14) n (%)
[3]; up to 36 weeks
  tolerability: generally well tolerated
[4]
  caregivers reporting meaningful change in the patient since the start of treatment (exit survey): 78%
[5]; 21 of 28
  pruritus responders reporting any TEAE: 75%
[5]; pruritus responders
  TEAEs leading to death or study drug discontinuation: no TEAEs leading to death or study drug discontinuation were reported
[5]; pruritus responders, n=28
  Any TEAE: 21 (75) n (%)
  Any TEAE: Mild: 10 (36) n (%)
  Any TEAE: Moderate: 8 (29) n (%)
  Any TEAE: Severe: 3 (11) n (%)
  Drug-related TEAE: Abdominal pain: 1 (4) n (%)
  Drug-related TEAE: Abdominal pain upper: 1 (4) n (%)
  Drug-related TEAE: Blood triglycerides increased: 1 (4) n (%)
  Drug-related TEAE: Diarrhea: 4 (14) n (%)
  Drug-related TEAE: Feces discolored: 1 (4) n (%)
  Drug-related TEAE: Frequent bowel movements: 1 (4) n (%)
  Drug-related TEAE: Hematemesis: 1 (4) n (%)
  Drug-related TEAE: Hepatic enzyme increased: 1 (4) n (%)
  Drug-related TEAE: INR increased: 1 (4) n (%)
  Drug-related TEAE: Nausea: 1 (4) n (%)
  Drug-related TEAE: Vomiting: 2 (7) n (%)
  Drug-related TEAE: Weight decreased: 1 (4) n (%)
  Drug-related TEAEs: 8 (29) n (%)
  Drug-related serious TEAEs: 1 (4)^a n (%)
  Serious TEAEs: 3 (11) n (%)
  TEAEs leading to discontinuation: 0 n (%)
  TEAEs leading to treatment interruption: 2 (7) n (%)
[6]; baseline to weeks 21-24
  Scratching score, Mean (SE) Change From Baseline: −2.0 (0.1)
[6]; n=28
  Scratching score, Baseline Mean (SE): 2.8 (0.1)
[6]; weeks 21-24, n=28
  Scratching score, Week 24 Mean (SE): 0.9 (0.1)
